# Assay results: ChEMBL document CHEMBL1201862, “PubChem BioAssay data set” (2004)
#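 In this assay, cells in 96-well plates receive the compound at five concentrations for 48 hours. Endpoints are linearly interpolated between the surrounding concentrations. At the GI50, growth is halved.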 Calls of active or inactive are those of the source. No stated cut-off is given here; in the data, active = GI50 up to about 1.1 µM and inactive = higher.
# Assays:
# Experiment in all cases: NCI anticancer screen, dose series, 48 h
# HCT-116 = tested on: HCT-116
# PC-3 = tested on: PC-3
# MDA-N = tested on: MDA-N
# CCRF-CEM = tested on: CCRF-CEM
# OVCAR-3 = tested on: OVCAR-3
# TK-10 = tested on: TK-10
# OVCAR-8 = tested on: OVCAR-8
# SNB-75 = tested on: SNB-75
# HT-29 = tested on: HT-29
# HCT-15 = tested on: HCT-15
# RXF 393 = tested on: RXF 393
# SK-MEL-2 = tested on: SK-MEL-2
# SF-268 = tested on: SF-268
# RPMI-8226 = tested on: RPMI-8226
# KM12 = tested on: KM12
# Malme-3M = tested on: Malme-3M
# MOLT-4 = tested on: MOLT-4
# A498 = tested on: A498
# BT-549 = tested on: BT-549
SMILES,GI50 (HCT-116),GI50 (PC-3),GI50 (MDA-N),GI50 (CCRF-CEM),GI50 (OVCAR-3),GI50 (TK-10),GI50 (OVCAR-8),GI50 (SNB-75),GI50 (HT-29),GI50 (HCT-15),GI50 (RXF 393),GI50 (SK-MEL-2),GI50 (SF-268),GI50 (RPMI-8226),GI50 (KM12),GI50 (Malme-3M),GI50 (MOLT-4),GI50 (A498),GI50 (BT-549)
CCCCCCCCCCOC1C(C(O)CNCCCN(C)C)OC2OC3(CCCCC3)OC21 (stereo not given),1.99 µM (inactive),2.26 µM (inactive),1.96 µM (inactive),1.71 µM (inactive),1.96 µM (inactive),3.21 µM (inactive),2.39 µM (inactive),0.0491 µM (active),1.62 µM (inactive),1.69 µM,1.93 µM (inactive),2.32 µM (inactive),2.17 µM (inactive),1.94 µM (inactive),1.51 µM (inactive),1.99 µM (inactive),1.77 µM (inactive),–,–
O=C1Cc2c([nH]c3ccc(Br)cc23)-c2cc(Br)ccc2N1,–,> 100 µM (inactive),–,> 100 µM (inactive),–,> 100 µM (inactive),> 100 µM (inactive),–,–,> 100 µM,–,> 100 µM (inactive),> 100 µM (inactive),> 100 µM (inactive),> 100 µM (inactive),–,86.3 µM (inactive),> 100 µM (inactive),> 100 µM (inactive)
Nc1nc(N)c2cc(S(=O)(=O)c3ccc4ccccc4c3)ccc2n1,0.495 µM (active),1.58 µM (inactive),–,–,> 100 µM (inactive),> 100 µM (inactive),1.34 µM (inactive),2.86 µM (inactive),–,3.93 µM,–,43.4 µM (inactive),5.22 µM (inactive),> 100 µM (inactive),9.95 µM (inactive),14.4 µM (inactive),–,–,11.7 µM (inactive)
CCCCCCCCCCCCCCCC(=O)N[C@H]1CCc2cc(OC)c(OC)c(OC)c2-c2ccc(SC)c(=O)cc21,0.338 µM (active),–,–,0.356 µM (active),0.225 µM (active),0.492 µM (active),0.557 µM (active),0.238 µM (active),0.253 µM (active),1.15 µM,3.02 µM (inactive),1.46 µM (inactive),0.54 µM (active),3.64 µM (inactive),0.29 µM (active),0.762 µM (active),1.23 µM (inactive),0.692 µM (active),–
c1ccc(/N=C2\SC(=NNc3ccccc3)S\C2=N/c2ccccc2)cc1,50.4 µM (inactive),19.5 µM (inactive),77.6 µM (inactive),> 100 µM (inactive),–,> 100 µM (inactive),> 100 µM (inactive),85.7 µM (inactive),45.4 µM (inactive),> 100 µM,7.66 µM (inactive),8.18 µM (inactive),> 100 µM (inactive),> 100 µM (inactive),6.12 µM (inactive),> 100 µM (inactive),> 100 µM (inactive),> 100 µM (inactive),–
CC1(N2CCOCC2)CC2C(=[N+]1[O-])CCC/C2=N/O (stereo not given),> 100 µM (inactive),> 100 µM (inactive),> 100 µM (inactive),> 100 µM (inactive),> 100 µM (inactive),> 100 µM (inactive),> 100 µM (inactive),0.334 µM (active),> 100 µM (inactive),> 100 µM,> 100 µM (inactive),> 100 µM (inactive),> 100 µM (inactive),–,> 100 µM (inactive),> 100 µM (inactive),> 100 µM (inactive),–,> 100 µM (inactive)
O=C(O)c1ccc2c(c1)Cc1cc([N+](=O)[O-])ccc1-2,> 100 µM (inactive),–,–,21.6 µM (inactive),> 100 µM (inactive),61 µM (inactive),59.7 µM (inactive),> 100 µM (inactive),> 100 µM (inactive),> 100 µM,–,> 100 µM (inactive),> 100 µM (inactive),0.546 µM (active),> 100 µM (inactive),> 100 µM (inactive),> 100 µM (inactive),44 µM (inactive),> 100 µM (inactive)
CN1COCN/C1=N/C#N,> 100 µM (inactive),–,–,> 100 µM (inactive),36.1 µM (inactive),–,> 10 µM (inactive),> 100 µM (inactive),> 100 µM (inactive),> 100 µM,–,> 100 µM (inactive),> 100 µM (inactive),> 100 µM (inactive),> 100 µM (inactive),> 100 µM (inactive),> 100 µM (inactive),> 100 µM (inactive),–
CC1=CCC[C@]2(C)C1=CC(=O)O[C@H]2c1ccoc1,> 100 µM (inactive),> 100 µM (inactive),> 100 µM (inactive),> 100 µM (inactive),> 100 µM (inactive),> 100 µM (inactive),> 100 µM (inactive),> 100 µM (inactive),> 100 µM (inactive),> 100 µM,> 100 µM (inactive),> 100 µM (inactive),> 100 µM (inactive),> 100 µM (inactive),> 100 µM (inactive),> 100 µM (inactive),> 100 µM (inactive),> 100 µM (inactive),–
COc1ccc(N2C(=O)/C(=C(\C)c3cc4ccccc4oc3=O)N=C2c2cc([N+](=O)[O-])ccc2Cl)cc1,29.9 µM (inactive),–,–,32.5 µM (inactive),73.8 µM (inactive),–,> 100 µM (inactive),33.3 µM (inactive),35.7 µM (inactive),–,–,61 µM (inactive),28.7 µM (inactive),26.5 µM (inactive),22.3 µM (inactive),45.2 µM (inactive),29.7 µM (inactive),24 µM (inactive),–
Cc1c(C)c2ccc(OC(C)C(=O)O)cc2oc1=O (stereo not given),> 100 µM (inactive),–,–,> 100 µM (inactive),> 100 µM (inactive),> 100 µM (inactive),> 100 µM (inactive),> 100 µM (inactive),> 100 µM (inactive),–,> 100 µM (inactive),–,> 100 µM (inactive),> 100 µM (inactive),> 100 µM (inactive),> 100 µM (inactive),> 100 µM (inactive),> 100 µM (inactive),–
NS(=O)(=O)c1nnc(NS(=O)(=O)c2ccccc2[N+](=O)[O-])s1,> 100 µM (inactive),> 100 µM (inactive),–,–,> 100 µM (inactive),> 100 µM (inactive),–,> 100 µM (inactive),> 100 µM (inactive),> 100 µM,> 100 µM (inactive),> 100 µM (inactive),> 100 µM (inactive),> 100 µM (inactive),> 100 µM (inactive),> 100 µM (inactive),> 100 µM (inactive),> 100 µM (inactive),> 100 µM (inactive)
CN1C(=O)CC2CCCN2C1=O (stereo not given),–,> 100 µM (inactive),> 100 µM (inactive),4.27 µM (inactive),> 100 µM (inactive),> 100 µM (inactive),> 100 µM (inactive),> 100 µM (inactive),> 100 µM (inactive),> 100 µM,> 100 µM (inactive),> 100 µM (inactive),> 100 µM (inactive),> 100 µM (inactive),> 100 µM (inactive),> 100 µM (inactive),> 100 µM (inactive),> 100 µM (inactive),–
